Assay results as given in patent US11007136B2, “Cosmetic composition for wrinkle reduction containing gypenoside isolated from Gynostemma pentaphyllum” (CELLTRION INC., priority 2015, dated 2021).

Key:
[1] = Titer stability of UL4 and UL5 within formulations (HPLC); type: physicochemical; conditions: for content stability Result: over 12 weeks
Description: As shown in Formulation Examples 1, 2 and 3, cosmetic compositions of a high viscosity emulsified formulation, a low viscosity emulsified formulation and a solubilized formulation, respectively comprising 0.2% of the Gynostemma pentaphyllum gypenoside fraction, were stored under a condition of 4 CC, 30 CC, 45° C. and sunlight for 12 weeks and changes with passage of time (% compared to an initial content) in the gypenosides UL4 and UL5, which were index ingredients for quantification out of the Gynostemma pentaphyllum gypenoside ingredients, were observed through an HPLC analysis, and results thereof were indicated in Tables 10 to 12.

[2] = test system: human dermal fibroblast neonatal; experiment: Cytotoxicity test (MTT); type: cell-based; conditions: for HDFn Viability: 48 h, % control
Description: A human dermal fibroblast neonatal (Cascade Co.) was inoculated into a 24-well microplate (5×10^4 cells/well) by using a medium, in which Dulbeco's Modified Eagle's Medium (DMEM) was supplemented with 10% fetal bovine serum, thus being cultured under a condition of 37° C. and 5% CO2 for 24 hours. Then, the same was replaced with a serum-free DMEM medium and cultured for 24 hours, thus treating the Gynostemma pentaphyllum gypenoside fraction obtained from the Example 1 and the gypenosides UL4 and UL5 isolated therefrom, respectively. After being cultured for 48 hours, an MTT solution was added thereto, thus being cultured for four hours. The medium was removed therefrom and DMSO was added thereto, thus dissolving an MTT formazan. The MTT formazan dissolved in the DMSO was taken out and an optical density thereof was measured at 570 nm, thus being compared to a group without sample treatment and indicated as % control.

[3] = test system: human dermal fibroblast neonatal; experiment: Procollagen production (collagen synthesis promotion), ELISA kit; type: cell-based; conditions: 1 and 5 μg/ml, 48 h, versus positive control NAG at the same concentration, FIG. 3
Description: A human dermal fibroblast neonatal (Cascade Co.) was inoculated into a 24-well microplate (5×10^4 cells/well) by using a medium, in which Dulbeco's Modified Eagle's Medium (DMEM) was supplemented with 10% fetal bovine serum, thus being cultured under a condition of 37° C. and 5% CO2 for 24 hours. Then, the same was replaced with a serum-free DMEM medium and cultured for 24 hours, after which an appropriate amount of a sample fluid was treated so that a final concentration of each test compound could reach 1 μg/ml and 5 μg/ml. After being cultured for 48 hours, a cell culture fluid was collected and then an amount of procollagen was measured by using a collagen measurement kit of Takara Company (Takara Shuzo Co., Ltd.). First of all, the collected cell culture fluid was injected into a 96-well microplate, to which a primary collagen antibody was evenly applied, such that an antigen-antibody reaction could occur at 37° C. for three hours. The cell culture fluid was removed from the well and washed four times with PBS. A color causing material was injected into each well, after which a reaction took place at a room temperature for 15 minutes, such that 1 N sulfuric acid solution was added thereto, thus stopping the reaction. An optical density was measured at a wavelength of 450 nm by means of a spectrophotometer. […]

content, % compared to an initial content ([1]; High viscosity emulsified formulation, 4° C., 1 week): 100.6% | content, % compared to an initial content ([1]; High viscosity emulsified formulation, 4° C., 2 weeks): 95.1% | content, % compared to an initial content ([1]; High viscosity emulsified formulation, 4° C., 4 weeks): 104.4% | content, % compared to an initial content ([1]; High viscosity emulsified formulation, 4° C., 8 weeks): 104.2% | content, % compared to an initial content ([1]; High viscosity emulsified formulation, 4° C., 12 weeks): 106.9% | content stability Result ([1]; High viscosity emulsified formulation, 4° C.): Stable | content, % compared to an initial content ([1]; High viscosity emulsified formulation, 30° C., 1 week): 103.8% | content, % compared to an initial content ([1]; High viscosity emulsified formulation, 30° C., 2 weeks): 105.7% | content, % compared to an initial content ([1]; High viscosity emulsified formulation, 30° C., 4 weeks): 108.2% | content, % compared to an initial content ([1]; High viscosity emulsified formulation, 30° C., 8 weeks): 103.4% | content, % compared to an initial content ([1]; High viscosity emulsified formulation, 30° C., 12 weeks): 104.1% | content stability Result ([1]; High viscosity emulsified formulation, 30° C.): Stable | content, % compared to an initial content ([1]; High viscosity emulsified formulation, 45° C., 1 week): 102.6% | content, % compared to an initial content ([1]; High viscosity emulsified formulation, 45° C., 2 weeks): 104.6% | content, % compared to an initial content ([1]; High viscosity emulsified formulation, 45° C., 4 weeks): 102.1% | content, % compared to an initial content ([1]; High viscosity emulsified formulation, 45° C., 8 weeks): 101.8% | content, % compared to an initial content ([1]; High viscosity emulsified formulation, 45° C., 12 weeks): 103.1% | content stability Result ([1]; High viscosity emulsified formulation, 45° C.): Stable | content, % compared to an initial content ([1]; High viscosity emulsified formulation, Sunlight, 1 week): 101.8% | content, % compared to an initial content ([1]; High viscosity emulsified formulation, Sunlight, 2 weeks): 99.2% | content, % compared to an initial content ([1]; High viscosity emulsified formulation, Sunlight, 4 weeks): 103% | content, % compared to an initial content ([1]; High viscosity emulsified formulation, Sunlight, 8 weeks): 101.1% | content, % compared to an initial content ([1]; High viscosity emulsified formulation, Sunlight, 12 weeks): 104.9% | content stability Result ([1]; High viscosity emulsified formulation, Sunlight): Stable | content, % compared to an initial content ([1]; Low viscosity emulsified formulation, 4° C., 1 week): 98.8% | content, % compared to an initial content ([1]; Low viscosity emulsified formulation, 4° C., 2 weeks): 100.4% | content, % compared to an initial content ([1]; Low viscosity emulsified formulation, 4° C., 4 weeks): 102.8% | content, % compared to an initial content ([1]; Low viscosity emulsified formulation, 4° C., 8 weeks): 100.2% | content, % compared to an initial content ([1]; Low viscosity emulsified formulation, 4° C., 12 weeks): 95.2% | content stability Result ([1]; Low viscosity emulsified formulation, 4° C.): Stable | content, % compared to an initial content ([1]; Low viscosity emulsified formulation, 30° C., 1 week): 103.3% | content, % compared to an initial content ([1]; Low viscosity emulsified formulation, 30° C., 2 weeks): 103.9% | content, % compared to an initial content ([1]; Low viscosity emulsified formulation, 30° C., 4 weeks): 102.2% | content, % compared to an initial content ([1]; Low viscosity emulsified formulation, 30° C., 8 weeks): 105.6% | content, % compared to an initial content ([1]; Low viscosity emulsified formulation, 30° C., 12 weeks): 105% | content stability Result ([1]; Low viscosity emulsified formulation, 30° C.): Stable | content, % compared to an initial content ([1]; Low viscosity emulsified formulation, 45° C., 1 week): 103.5% | content, % compared to an initial content ([1]; Low viscosity emulsified formulation, 45° C., 2 weeks): 102% | content, % compared to an initial content ([1]; Low viscosity emulsified formulation, 45° C., 4 weeks): 104.8% | content, % compared to an initial content ([1]; Low viscosity emulsified formulation, 45° C., 8 weeks): 94.2% | content, % compared to an initial content ([1]; Low viscosity emulsified formulation, 45° C., 12 weeks): 98.3% | content stability Result ([1]; Low viscosity emulsified formulation, 45° C.): Stable | content, % compared to an initial content ([1]; Low viscosity emulsified formulation, Sunlight, 1 week): 94.4% | content, % compared to an initial content ([1]; Low viscosity emulsified formulation, Sunlight, 2 weeks): 98.1% | content, % compared to an initial content ([1]; Low viscosity emulsified formulation, Sunlight, 4 weeks): 101.6% | content, % compared to an initial content ([1]; Low viscosity emulsified formulation, Sunlight, 8 weeks): 101% | content, % compared to an initial content ([1]; Low viscosity emulsified formulation, Sunlight, 12 weeks): 102.6% | content stability Result ([1]; Low viscosity emulsified formulation, Sunlight): Stable | content, % compared to an initial content ([1]; Solubilized formulation, 4° C., 1 week): 98.8% | content, % compared to an initial content ([1]; Solubilized formulation, 4° C., 2 weeks): 95.7% | content, % compared to an initial content ([1]; Solubilized formulation, 4° C., 4 weeks): 105.1% | content, % compared to an initial content ([1]; Solubilized formulation, 4° C., 8 weeks): 102.8% | content, % compared to an initial content ([1]; Solubilized formulation, 4° C., 12 weeks): 102.3% | content stability Result ([1]; Solubilized formulation, 4° C.): Stable | content, % compared to an initial content ([1]; Solubilized formulation, 30° C., 1 week): 100% | content, % compared to an initial content ([1]; Solubilized formulation, 30° C., 2 weeks): 105.1% | content, % compared to an initial content ([1]; Solubilized formulation, 30° C., 4 weeks): 108.6% | content, % compared to an initial content ([1]; Solubilized formulation, 30° C., 8 weeks): 103.7% | content, % compared to an initial content ([1]; Solubilized formulation, 30° C., 12 weeks): 104.9% | content stability Result ([1]; Solubilized formulation, 30° C.): Stable | content, % compared to an initial content ([1]; Solubilized formulation, 45° C., 1 week): 100.3% | content, % compared to an initial content ([1]; Solubilized formulation, 45° C., 2 weeks): 101.4% | content, % compared to an initial content ([1]; Solubilized formulation, 45° C., 4 weeks): 97.2% | content, % compared to an initial content ([1]; Solubilized formulation, 45° C., 8 weeks): 102.1% | content, % compared to an initial content ([1]; Solubilized formulation, 45° C., 12 weeks): 95.6% | content stability Result ([1]; Solubilized formulation, 45° C.): Stable | content, % compared to an initial content ([1]; Solubilized formulation, Sunlight, 1 week): 97.9% | content, % compared to an initial content ([1]; Solubilized formulation, Sunlight, 2 weeks): 95.9% | content, % compared to an initial content ([1]; Solubilized formulation, Sunlight, 4 weeks): 104.9% | content, % compared to an initial content ([1]; Solubilized formulation, Sunlight, 8 weeks): 103.5% | content, % compared to an initial content ([1]; Solubilized formulation, Sunlight, 12 weeks): 103.3% | content stability Result ([1]; Solubilized formulation, Sunlight): Stable
SMILES: CC(C)=CC1C[C@](O)([C@H]2CC[C@]3(C)[C@@H]2CC[C@@H]2[C@@]4(C=O)CC[C@H](O[C@@H]5OC[C@H](O)[C@H](O[C@@H]6O[C@H](CO)[C@@H](O)[C@H](O)[C@H]6O)[C@H]5O[C@@H]5O[C@@H](C)[C@H](O)[C@@H](O)[C@H]5O)C(C)(C)[C@@H]4CC[C@]23C)[C@H](O)O1 (stereo partly drawn) [Gypenoside UL5, (23ξ)-3β,20β,21α-trihydroxy-19-oxo-21,23-epoxy-dammar-24-ene-3-O-[α-L-rhamnopyranosyl (1→2)][β-D-glucopyranosyl (1→3)]-α-L-arabinopyranoside]
HDFn Viability ([2]; 5 ug/ml): 100% | HDFn Viability ([2]; 10 ug/ml): 102% | HDFn Viability ([2]; 50 ug/ml): 113% | cytotoxicity ([2]; at concentrations promoting procollagen synthesis): did not show any cytotoxicity | procollagen-producing effect compared with NAG [3]: the same or larger amount of procollagen
